This note sets out measurements from patent US20250084056A1, “SUBSTITUTED OXOISOINDOLINYL PIPERIDINE-2,6-DIONE COMPOUNDS” (BRISTOL-MYERS SQUIBB COMPANY, priority 2023, published 2025).

Common to all, as to format: cell-based
In one assay the test system is Phospho-Rb (Ser807/811). Kind of assay: Phospho-Retinoblastoma (pRB) Cellular Assay. Conditions: Homo sapiens, OVCAR-3, NIH OVCAR3 cells, 24 hours; for IC50: concentration giving 50% response; for Emax: maximum response, reference compound at 10 μM = 100%, read-out: pRB Ymax. A digest of the protocol:
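Phospho-Rb (Ser807/811) kit read-out on EnVision after lysis (≥4 h, room temperature, dark) of OVCAR3 cells exposed to compound dilutions for 24 h. IC50 and maximum response Ymax are relative to a 10 μM reference compound defining 100%.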

The target of another assay is GSPT1 (Homo sapiens, UniProt P15170+Q96SW2). Briefly: GSPT1 Cellular Degradation Assay (DF15-GSPT1-ePL). As to conditions: DF15-GSPT1-ePL cells, 20 hours. The arrangement: expressed in transfected cells. A digest of the protocol: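 DC50 and Dmax were derived from chemiluminescence, with 75% response set by the reference compound at […]. Readout was ePL enzyme-fragment complementation in a DF15 line expressing chimeric GSPT1. Cells were exposed to compound for 20 h at 37 °C in RPMI 1640 with 10% FBS, cooled 30 min, then lysed with substrate for 60 min.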
Chain of GSPT1 (P15170 whole entry, the tested form may be a part): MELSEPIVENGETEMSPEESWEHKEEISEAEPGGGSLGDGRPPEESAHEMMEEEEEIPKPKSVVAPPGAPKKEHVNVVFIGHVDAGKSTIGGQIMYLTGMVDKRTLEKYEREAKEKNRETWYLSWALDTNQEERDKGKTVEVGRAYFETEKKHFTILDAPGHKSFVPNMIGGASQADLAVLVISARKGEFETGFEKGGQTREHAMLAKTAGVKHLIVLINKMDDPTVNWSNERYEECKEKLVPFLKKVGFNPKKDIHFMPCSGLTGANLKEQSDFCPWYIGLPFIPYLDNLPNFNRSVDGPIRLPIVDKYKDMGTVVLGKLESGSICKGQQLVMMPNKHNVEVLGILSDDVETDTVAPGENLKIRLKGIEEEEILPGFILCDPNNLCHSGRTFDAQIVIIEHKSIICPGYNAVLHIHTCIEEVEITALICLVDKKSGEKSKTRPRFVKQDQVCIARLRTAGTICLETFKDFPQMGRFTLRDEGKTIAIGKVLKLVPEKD
Chain of GSPT1 (Q96SW2 whole entry, the tested form may be a part): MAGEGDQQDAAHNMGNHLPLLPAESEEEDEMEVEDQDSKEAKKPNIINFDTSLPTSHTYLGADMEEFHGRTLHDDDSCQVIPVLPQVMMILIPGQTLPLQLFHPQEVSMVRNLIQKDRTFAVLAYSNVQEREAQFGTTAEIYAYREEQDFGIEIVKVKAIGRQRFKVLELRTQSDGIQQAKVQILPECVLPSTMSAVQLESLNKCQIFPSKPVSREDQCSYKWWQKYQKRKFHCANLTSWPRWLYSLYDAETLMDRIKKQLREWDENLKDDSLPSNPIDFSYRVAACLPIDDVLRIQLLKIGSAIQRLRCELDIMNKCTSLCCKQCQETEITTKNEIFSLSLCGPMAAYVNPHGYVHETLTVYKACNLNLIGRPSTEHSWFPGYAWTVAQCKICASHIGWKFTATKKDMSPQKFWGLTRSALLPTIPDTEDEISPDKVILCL
Chain of GSPT1 (Q16531 whole entry partner, the tested form may be a part): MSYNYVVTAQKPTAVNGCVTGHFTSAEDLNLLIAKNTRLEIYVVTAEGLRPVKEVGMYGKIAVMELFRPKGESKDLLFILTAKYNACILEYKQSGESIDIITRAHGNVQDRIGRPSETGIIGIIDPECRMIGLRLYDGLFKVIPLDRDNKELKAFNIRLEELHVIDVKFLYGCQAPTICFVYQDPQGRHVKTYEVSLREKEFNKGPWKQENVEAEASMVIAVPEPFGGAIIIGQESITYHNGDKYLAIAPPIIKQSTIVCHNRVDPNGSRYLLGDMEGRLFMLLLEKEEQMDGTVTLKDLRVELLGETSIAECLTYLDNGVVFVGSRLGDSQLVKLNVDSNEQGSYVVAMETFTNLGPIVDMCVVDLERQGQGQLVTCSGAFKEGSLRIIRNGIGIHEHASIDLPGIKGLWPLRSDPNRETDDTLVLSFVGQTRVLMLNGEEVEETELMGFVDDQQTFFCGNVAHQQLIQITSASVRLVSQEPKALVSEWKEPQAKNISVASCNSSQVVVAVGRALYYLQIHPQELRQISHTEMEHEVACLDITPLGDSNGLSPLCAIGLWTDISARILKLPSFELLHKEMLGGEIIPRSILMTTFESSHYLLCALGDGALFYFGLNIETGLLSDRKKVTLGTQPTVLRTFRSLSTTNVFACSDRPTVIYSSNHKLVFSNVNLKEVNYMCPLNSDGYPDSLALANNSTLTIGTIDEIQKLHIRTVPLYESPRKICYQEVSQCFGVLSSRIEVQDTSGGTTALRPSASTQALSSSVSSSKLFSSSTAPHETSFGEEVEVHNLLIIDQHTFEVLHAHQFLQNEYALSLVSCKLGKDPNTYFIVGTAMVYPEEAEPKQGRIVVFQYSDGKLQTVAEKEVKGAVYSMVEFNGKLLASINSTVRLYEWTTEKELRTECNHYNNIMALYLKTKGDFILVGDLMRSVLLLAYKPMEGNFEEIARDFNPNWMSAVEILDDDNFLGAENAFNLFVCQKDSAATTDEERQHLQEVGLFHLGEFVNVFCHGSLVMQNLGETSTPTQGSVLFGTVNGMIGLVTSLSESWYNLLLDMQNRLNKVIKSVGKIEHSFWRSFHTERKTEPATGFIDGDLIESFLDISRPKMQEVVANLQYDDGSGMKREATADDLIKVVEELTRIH

The target of a further assay is Cyclin E1 (Homo sapiens, UniProt P24864+Q96SW2). Kind of assay: Cyclin E1 Cellular Degradation Assay (MSD). Conditions: for DC50 / Dmax: Cyclin E1 cellular degradation; for Dmax: maximum degradation; for Ratio of GSPT1 DC50/Cyclin E1 DC50: selectivity for degradation of Cyclin E1 over GSPT1. The arrangement: endogenous in cells; host or cells: OVCAR3. A digest of the protocol: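 Cyclin E1 remaining after 24 h compound exposure of OVCAR3 cells was quantified in lysates by electrochemiluminescent MSD sandwich assay. DC50 (50% response concentration) and Dmax (maximum response) were calculated, with 110% response set by a reference compound at […].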
Chain of Cyclin E1 (P24864 whole entry): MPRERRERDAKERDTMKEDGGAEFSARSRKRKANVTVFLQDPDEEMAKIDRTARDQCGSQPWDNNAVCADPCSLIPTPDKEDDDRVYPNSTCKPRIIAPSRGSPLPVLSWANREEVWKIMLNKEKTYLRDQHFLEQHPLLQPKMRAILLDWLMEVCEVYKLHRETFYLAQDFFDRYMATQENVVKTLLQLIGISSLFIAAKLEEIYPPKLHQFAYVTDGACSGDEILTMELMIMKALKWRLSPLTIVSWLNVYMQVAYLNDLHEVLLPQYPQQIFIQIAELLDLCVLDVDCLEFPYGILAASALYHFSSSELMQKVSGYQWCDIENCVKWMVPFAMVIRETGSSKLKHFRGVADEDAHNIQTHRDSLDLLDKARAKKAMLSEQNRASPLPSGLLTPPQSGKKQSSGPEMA
Chain of Cyclin E1 (Q96SW2 whole entry): as the sequence (Q96SW2 whole entry, the tested form may be a part) above
Chain of Cyclin E1 (Q16531 whole entry partner): as the sequence (Q16531 whole entry partner, the tested form may be a part) above

In general, IC50 refers to the point on the concentration scale where inhibition reaches its midpoint. The DC50 is the concentration giving 50% degradation. The low end stands for degradation at low concentration, the high end for degradation only at high concentration. By Dmax is commonly meant the greatest extent of degradation seen. Consider `CC(C)(O)COc1c(COC(=O)Nc2ccc(Oc3ccc(F)c(F)c3)cc2F)ccc2c1C(=O)N(C1CCC(=O)NC1=O)C2` (stereo not drawn) [Example 161, [2-(2,6-dioxopiperidin-3-yl)-4-(2-hydroxy-2-methylpropoxy)-3-oxo-2,3-dihydro-1H-isoindol-5-yl]methyl N-[4-(3,4-difluorophenoxy)-2-fluorophenyl]carbamate], for which, in the assay on Phospho-Rb (Ser807/811), the IC50 was 0.037 µM and the Emax came out at 129%. Also, at GSPT1, the DC50 was > 14 µM and the Dmax is 10%. In addition, at Cyclin E1, it took 0.062 µM to reach half-maximal degradation (DC50), the Dmax came out at 102% and the “Ratio of GSPT1 DC50/Cyclin E1 DC50” value was >225.

As for `COc1c(COC(=O)Nc2ccc(Oc3ccc(F)cc3C(F)F)cc2)ccc2c1C(=O)N(C1CCC(=O)NC1=O)C2` (stereo not drawn) [Example 89, [2-(2,6-dioxopiperidin-3-yl)-4-methoxy-3-oxo-2,3-dihydro-1H-isoindol-5-yl]methyl N-{4-[2-(difluoromethyl)-4-fluorophenoxy]phenyl}carbamate], in the assay on Phospho-Rb (Ser807/811), the IC50 is 0.159 µM and the Emax worked out at 108%. Also, at GSPT1, the DC50 is > 14 µM and the Dmax is 42%. Further, on Cyclin E1, half-maximal degradation (DC50) was put at 0.289 µM, the Dmax was 101% and the “Ratio of GSPT1 DC50/Cyclin E1 DC50” value is >48.

In the case of `COc1c(COC(=O)Nc2ccc(Oc3ccccc3C)cc2)ccc2c1C(=O)N(C1CCC(=O)NC1=O)C2` (stereo not drawn) [Example 101, [2-(2,6-dioxopiperidin-3-yl)-4-methoxy-3-oxo-2,3-dihydro-1H-isoindol-5-yl]methyl N-[4-(2-methylphenoxy)phenyl]carbamate], in the assay on Phospho-Rb (Ser807/811), the IC50 was 0.061 µM and the Emax was determined as 111%. Further, on GSPT1, the DC50 is > 14 µM and the Dmax stood at 18%. Besides, at Cyclin E1, the DC50 amounted to 0.072 µM, the Dmax stood at 108% and the “Ratio of GSPT1 DC50/Cyclin E1 DC50” value is >194.

In the case of `COc1cc(Oc2ccc(F)cc2C)ccc1NC(=O)OCc1ccc2c(c1OC)C(=O)N(C1CCC(=O)NC1=O)C2` (stereo not drawn) [Example 75, [2-(2,6-dioxopiperidin-3-yl)-4-methoxy-3-oxo-2,3-dihydro-1H-isoindol-5-yl]methyl N-[4-(4-fluoro-2-methylphenoxy)-2-methoxyphenyl]carbamate], in the assay on Phospho-Rb (Ser807/811), the IC50 came out at 0.287 µM and the Emax is 120%. Also, on GSPT1, the DC50 is > 14 µM and the Dmax came to 23%. Moreover, at Cyclin E1, it took 0.328 µM to reach half-maximal degradation (DC50), the Dmax worked out at 109% and the “Ratio of GSPT1 DC50/Cyclin E1 DC50” value is listed as >43.

Regarding `COc1cc(Oc2ccccc2)ccc1NC(=O)OCc1ccc2c(c1OC)C(=O)N(C1CCC(=O)NC1=O)C2` (stereo not drawn) [Example 93, [2-(2,6-dioxopiperidin-3-yl)-4-methoxy-3-oxo-2,3-dihydro-1H-isoindol-5-yl]methyl N-(2-methoxy-4-phenoxyphenyl)carbamate], in the assay on Phospho-Rb (Ser807/811), the IC50 was found to be 0.159 µM and the Emax stood at 111%. Also, on GSPT1, the DC50 was > 14 µM and the Dmax turned out to be 5%. Further, at Cyclin E1, half-maximal degradation (DC50) was put at 0.338 µM, the Dmax came out at 103% and the “Ratio of GSPT1 DC50/Cyclin E1 DC50” value is given as >41.

As to `O=C1CCC(N2Cc3ccc(COC(=O)Nc4ccc(Oc5ccccc5)cc4)c(OC(F)F)c3C2=O)C(=O)N1` (stereo not drawn) [Example 60, [4-(difluoromethoxy)-2-(2,6-dioxopiperidin-3-yl)-3-oxo-2,3-dihydro-1H-isoindol-5-yl]methyl N-(4-phenoxyphenyl)carbamate], in the assay on Phospho-Rb (Ser807/811), the IC50 amounted to 0.503 µM and the Emax turned out to be 109%. In addition, at GSPT1, the DC50 is > 14 µM and the Dmax came out at 19%. At Cyclin E1, the DC50 is 0.184 µM, the Dmax turned out to be 104% and the “Ratio of GSPT1 DC50/Cyclin E1 DC50” value is given as >76.

For the compound `CC(C)Oc1c(COC(=O)Nc2ccc(Oc3cccc(F)c3)cc2)ccc2c1C(=O)N(C1CCC(=O)NC1=O)C2` (stereo not drawn) [Example 123, [2-(2,6-dioxopiperidin-3-yl)-3-oxo-4-(propan-2-yloxy)-2,3-dihydro-1H-isoindol-5-yl]methyl N-[4-(3-fluorophenoxy)phenyl]carbamate], in the assay with Phospho-Rb (Ser807/811), it took 0.11 µM to reach half-maximal inhibition (IC50) and the Emax was 121%. Moreover, on GSPT1, the DC50 was > 14 µM and the Dmax came to 4%. Besides, on Cyclin E1, it took 0.131 µM to reach half-maximal degradation (DC50), the Dmax came out at 107% and the “Ratio of GSPT1 DC50/Cyclin E1 DC50” value was >107.

`COc1c(COC(=O)Nc2ccc(Oc3ccc(F)cc3C)cc2C)ccc2c1C(=O)N(C1CCC(=O)NC1=O)C2` (stereo not drawn) [Example 76, [2-(2,6-dioxopiperidin-3-yl)-4-methoxy-3-oxo-2,3-dihydro-1H-isoindol-5-yl]methyl N-[4-(4-fluoro-2-methylphenoxy)-2-methylphenyl]carbamate]: in the assay with Phospho-Rb (Ser807/811), half-maximal inhibition (IC50) was put at 0.104 µM and the Emax amounted to 122%. For the same compound, at GSPT1, the DC50 is > 14 µM and the Dmax amounted to 33%. Further, on Cyclin E1, the DC50 amounted to 0.267 µM, the Dmax is 111% and the “Ratio of GSPT1 DC50/Cyclin E1 DC50” value is >52.

As for `CC(C)Oc1c(COC(=O)Nc2ccc(Oc3ccccc3)cc2)ccc2c1C(=O)N(C1CCC(=O)NC1=O)C2` (stereo not drawn) [Example 57, [2-(2,6-dioxopiperidin-3-yl)-3-oxo-4-(propan-2-yloxy)-2,3-dihydro-1H-isoindol-5-yl]methyl N-(4-phenoxyphenyl)carbamate], in the assay with Phospho-Rb (Ser807/811), the IC50 turned out to be 0.212 µM and the Emax stood at 114%. Moreover, at GSPT1, the DC50 was > 14 µM and the Dmax is 36%. At Cyclin E1, it took 0.128 µM to reach half-maximal degradation (DC50), the Dmax was 102% and the “Ratio of GSPT1 DC50/Cyclin E1 DC50” value is listed as >109.

Turning to `O=C1CCC(N2Cc3ccc(COC(=O)Nc4ccc(Oc5ccccc5F)cc4)c(Oc4ccccc4)c3C2=O)C(=O)N1` (stereo not drawn) [Example 65, [2-(2,6-dioxopiperidin-3-yl)-3-oxo-4-phenoxy-2,3-dihydro-1H-isoindol-5-yl]methyl N-[4-(2-fluorophenoxy)phenyl]carbamate], in the assay with Phospho-Rb (Ser807/811), the IC50 turned out to be 0.059 µM and the Emax came to 127%. At GSPT1, the DC50 was > 14 µM and the Dmax was determined as 0%. For the same compound, on Cyclin E1, the DC50 is 0.164 µM, the Dmax turned out to be 101% and the “Ratio of GSPT1 DC50/Cyclin E1 DC50” value is >85.

With `CC(C)Oc1c(COC(=O)Nc2ccc(Oc3ccc(F)cc3Cl)cc2)ccc2c1C(=O)N(C1CCC(=O)NC1=O)C2` (stereo not drawn) [Example 124, [2-(2,6-dioxopiperidin-3-yl)-3-oxo-4-(propan-2-yloxy)-2,3-dihydro-1H-isoindol-5-yl]methyl N-[4-(2-chloro-4-fluorophenoxy)phenyl]carbamate], in the assay on Phospho-Rb (Ser807/811), the IC50 is 0.163 µM and the Emax is 121%. On GSPT1, the DC50 was > 14 µM and the Dmax is 15%. Also, on Cyclin E1, it took 0.195 µM to reach half-maximal degradation (DC50), the Dmax amounted to 103% and the “Ratio of GSPT1 DC50/Cyclin E1 DC50” value is >72.

Turning to `COc1c(COC(=O)Nc2ccc(Oc3ccc(F)cc3C)cc2F)ccc2c1C(=O)N(C1CCC(=O)NC1=O)C2` (stereo not drawn) [Example 95, [2-(2,6-dioxopiperidin-3-yl)-4-methoxy-3-oxo-2,3-dihydro-1H-isoindol-5-yl]methyl N-[2-fluoro-4-(4-fluoro-2-methylphenoxy)phenyl]carbamate], in the assay with Phospho-Rb (Ser807/811), the IC50 was found to be 0.063 µM and the Emax was 125%. On GSPT1, the DC50 was > 14 µM and the Dmax was determined as 36%. For the same compound, at Cyclin E1, half-maximal degradation (DC50) was put at 0.274 µM, the Dmax was 110% and the “Ratio of GSPT1 DC50/Cyclin E1 DC50” value is >51.

Turning to `COc1c(COC(=O)Nc2ccc(Oc3ccc(F)c(Cl)c3)cc2)ccc2c1C(=O)N(C1CCC(=O)NC1=O)C2` (stereo not drawn) [Example 14, [2-(2,6-dioxopiperidin-3-yl)-4-methoxy-3-oxo-2,3-dihydro-1H-isoindol-5-yl]methyl N-[4-(3-chloro-4-fluorophenoxy)phenyl]carbamate], in the assay with Phospho-Rb (Ser807/811), inhibition was half-maximal at 0.363 µM (IC50) and the Emax was 96%. Besides, at GSPT1, the DC50 is > 14 µM and the Dmax was found to be 43%. Also, at Cyclin E1, it took 0.059 µM to reach half-maximal degradation (DC50), the Dmax was found to be 108% and the “Ratio of GSPT1 DC50/Cyclin E1 DC50” value is >239.

Consider `COc1cc(Oc2ccc(F)c(Cl)c2)ccc1NC(=O)OCc1ccc2c(c1OC)C(=O)N(C1CCC(=O)NC1=O)C2` (stereo not drawn) [Example 100, [2-(2,6-dioxopiperidin-3-yl)-4-methoxy-3-oxo-2,3-dihydro-1H-isoindol-5-yl]methyl N-[4-(3-chloro-4-fluorophenoxy)-2-methoxyphenyl]carbamate], for which, in the assay on Phospho-Rb (Ser807/811), inhibition was half-maximal at 0.14 µM (IC50) and the Emax was 118%. Further, at GSPT1, the DC50 was > 14 µM and the Dmax worked out at 33%. Moreover, at Cyclin E1, half-maximal degradation (DC50) was put at 0.327 µM, the Dmax came out at 112% and the “Ratio of GSPT1 DC50/Cyclin E1 DC50” value was >43.

For the compound `O=C1CCC(N2Cc3ccc(COC(=O)Nc4ccc(Oc5ccc(F)cc5)cc4)c(O[C@@H]4CCCOC4)c3C2=O)C(=O)N1` (stereo partly drawn) [Example 144, [2-(2,6-dioxopiperidin-3-yl)-4-[(3R)-oxan-3-yloxy]-3-oxo-2,3-dihydro-1H-isoindol-5-yl]methyl N-[4-(4-fluorophenoxy)phenyl]carbamate], in the assay on Phospho-Rb (Ser807/811), the IC50 was found to be 0.023 µM and the Emax is 145%. At GSPT1, the DC50 was > 14 µM and the Dmax came to 4%. On Cyclin E1, the DC50 amounted to 0.106 µM, the Dmax was 103% and the “Ratio of GSPT1 DC50/Cyclin E1 DC50” value is recorded as >133.
